# How the values were obtained:
# [1] = test system: Friend Leukemia Virus (FLV); test: Anti-Friend Leukemia Virus plaque inhibition in FG-10 cells; assay type: cell-based; details: dipyridamole 10 μM, dilazep 5 μM, each alone
# Salmonella typhimurium = test: In vitro antibacterial activity (MIC), Salmonella typhimurium; assay type: cell-based; details: Salmonella enterica, Wellcotest sensitivity Test Agar + 7% lysed horse blood
# Entero. aerogenes = test: In vitro antibacterial activity (MIC), Entero. aerogenes; assay type: cell-based, Enterobacter aerogenes; details: Klebsiella aerogenes; Wellcotest sensitivity Test Agar + 7% lysed horse blood
# Citro. freundii = test: In vitro antibacterial activity (MIC), Citro. freundii; assay type: cell-based; details: Citrobacter freundii; Wellcotest sensitivity Test Agar + 7% lysed horse blood
# E. coli CN314 = test: In vitro antibacterial MIC and synergy studies against E. coli CN314; details: Escherichia coli
# HIV [2] = test: AZT/Acyclovir combinations vs. HIV in vitro (protection); assay type: cell-based
# HIV [3] = test: Anti-HIV activity of 3'-azidonucleosides in vitro (T-cells); assay type: cell-based; details: Human immunodeficiency virus 1; T-cells exposed to HIV, viable cell count; read-out: ED50 (the source's name)
SMILES,MIC (Salmonella typhimurium) [µg/mL],MIC (Entero. aerogenes) [µg/mL],MIC (Citro. freundii) [µg/mL],MIC (E. coli CN314) [µg/mL],other results
OCCN(CCO)c1nc(N2CCCCC2)c2nc(N(CCO)CCO)nc(N3CCCCC3)c2n1 [dipyridamole],–,–,–,–,observed antiviral effect alone [1]: Neither dipyridamole (10 μM) nor dilazep (5 μM) alone had any observed antiviral effect
O=C(N[C@H](CO)[C@H](O)c1ccc([N+](=O)[O-])cc1)C(Cl)Cl [Chloramphenicol],–,–,–,3.1,–
CO[C@H]1/C=C/O[C@@]2(C)Oc3c(C)c(O)c4c(O)c(c(/C=N/N5CCN(C)CC5)c(O)c4c3C2=O)NC(=O)/C(C)=C\C=C\[C@H](C)[C@H](O)[C@@H](C)[C@@H](O)[C@@H](C)[C@H](OC(C)=O)[C@@H]1C [Rifampicin],–,–,–,6.2,–
Cc1cc(C)nc(NS(=O)(=O)c2ccc(N)cc2)n1 [Sulphadimidine],–,–,–,32,–
NC[C@H]1O[C@H](O[C@H]2[C@H](O)[C@@H](O[C@H]3O[C@H](CO)[C@@H](O)[C@H](N)[C@H]3O)[C@H](N)C[C@@H]2N)[C@H](N)C[C@@H]1O [Tobramycin],–,–,–,0.4,–
"COc1cc(Cc2cnc(N)nc2N)cc(OC)c1OC [Trimethoprim, 2,4-diamino-5-(3',4',5'-trimethoxybenzyl) pyrimidine, reference compound]",0.5,0.5,0.5,0.125,–
"Nc1nc2c(ncn2COCCO)c(=O)[nH]1 [ACV, 9-(2-hydroxyethoxymethyl)guanine]",–,–,–,–,"potentiation of the antiviral activity of AZT (HIV [2]): about 3 -fold; activity alone vs. HIV (HIV [2]; ACV alone): little activity; inhibition at 16 µg/mL (HIV [2]; Human immunodeficiency virus 1, T-cell, ACV alone, 16 μg/ml (highest tested)): < 30%"
"[N-]=[N+]=N[C@H]1C[C@H](n2cc(Br)c(N)nc2=O)O[C@@H]1CO [3'-Azido-5-bromo-2',3'-dideoxycytidine]",–,–,–,–,EC50 (HIV [3]): 5 µM
"[N-]=[N+]=N[C@H]1C[C@H](n2cc(/C=C/C(=O)O)c(=O)[nH]c2=O)O[C@@H]1CO [(E)-3-[1-(3'-Azido-2',3'-dideoxy-β-D-erythro-pentofuranosyl)-1,2,3,4-tetrahydro-2,4-dioxo-5-pyrimidinyl]-2-propenoic Acid]",–,–,–,–,EC50 (HIV [3]): 100 µM
CC(=O)O[C@H]1C[C@@]2(C)[C@@H](C[C@@H](O)[C@H]3[C@@]4(C)CC[C@@H](O)[C@@H](C)[C@@H]4CC[C@@]32C)/C1=C(\CCC=C(C)C)C(=O)O [Fusidic acid],–,–,–,1000,–
CC[C@H]1OC(=O)[C@H](C)[C@@H](O[C@H]2C[C@@](C)(OC)[C@@H](O)[C@H](C)O2)[C@H](C)[C@@H](O[C@@H]2O[C@H](C)C[C@H](N(C)C)[C@H]2O)[C@](C)(O)C[C@@H](C)C(=O)[C@H](C)[C@@H](O)[C@]1(C)O [Erythromycin],–,–,–,25,–
"[N-]=[N+]=N[C@H]1C[C@H](n2ccc(N)nc2=O)O[C@@H]1CO [3'-Azido-2',3'-dideoxycytidine]",–,–,–,–,EC50 (HIV [3]): 10 µM
"[N-]=[N+]=N[C@H]1C[C@H](n2cc(Br)c(=O)[nH]c2=O)O[C@@H]1CO [Compound 8, 3'-Azido-5-bromo-2',3'-dideoxyuridine]",> 100,> 100,> 100,–,EC50 (HIV [3]): 5 µM
COc1cc(C(=O)OCCCN2CCCN(CCCOC(=O)c3cc(OC)c(OC)c(OC)c3)CC2)cc(OC)c1OC [dilazep],–,–,–,–,observed antiviral effect alone [1]: Neither dipyridamole (10 μM) nor dilazep (5 μM) alone had any observed antiviral effect
CCC[C@@H]1C[C@@H](C(=O)N[C@@H]([C@H]2O[C@H](SC)[C@H](O)[C@@H](O)[C@H]2O)[C@H](C)Cl)N(C)C1 [Clindamycin],–,–,–,100,–

# Continued, in another order:
MIC (Salmonella typhimurium) [µg/mL],MIC (Entero. aerogenes) [µg/mL],MIC (Citro. freundii) [µg/mL],SMILES,MIC (E. coli CN314) [µg/mL],other results
10,> 100,10,"Cc1cn([C@H]2C[C@H](N=[N+]=[N-])[C@@H](CO)O2)c(=S)[nH]c1=O [Compound 3, 3'-Azido-3'-deoxy-2-deoxy-2-thiothymidine]",–,–
10,10,10,"Cc1cn([C@H]2C[C@H](N=[N+]=[N-])[C@@H](CO)O2)c(OCc2ccccc2)nc1=O [Compound 6, 1-(3'-Azido-2',3'-dideoxy-β-D-erythro-pentofuranosyl)-2-(benzyloxo)-5-methyl-4-(1H)-pyrimidinone]",–,–
10,10,10,"COc1nc(=O)c(C)cn1[C@H]1C[C@H](N=[N+]=[N-])[C@@H](CO)O1 [Compound 7, 3'-Azido-3'-deoxy-2-methoxythymidine]",–,–
< 0.1,> 100,< 0.1,"CC(=O)OC[C@H]1O[C@@H](n2cc(C)c(=O)n(C(=O)c3ccccc3)c2=O)C[C@@H]1N=[N+]=[N-] [Compound 4, 5'-Acetyl-3'-azido-3-benzoyl-3'-deoxythymidine]",–,–
> 100,100,10,"CC(=O)OC[C@H]1O[C@@H](n2cc(C)c(-n3cncn3)nc2=O)C[C@@H]1N=[N+]=[N-] [Compound 5, 1-(5'-O-Acetyl-3'-azido-2',3'-deoxy-β-D-erythro-pentofuranosyl)-5-methyl-4-(1,2,4-triazol-1-yl)-2(1H)-pyrimidinone]",–,–
< 0.1,< 0.1,10,"Cc1cn([C@H]2C[C@H](N=[N+]=[N-])[C@@H](CO)O2)c(=O)[nH]c1=S [Compound 1, 3'-Azido-3'-deoxy-4-thiothymidine]",–,–
10,10,10,"CC(=O)OC[C@H]1O[C@@H](n2cc(C)c(=S)[nH]c2=O)C[C@@H]1N=[N+]=[N-] [Compound 2, 3'-Azido-3'-deoxy-5'-O-acetyl-4-thiothymidine]",–,–

# From patent US5064946A, “Therapeutic nucleosides” (priority 1987, dated 1991)
